Results reported in US8106067B2, “Indolizine derivatives and the use thereof as antidiabetics” (Merck Patent GmbH, priority 2006, dated 2012).

What was measured:
[1] = molecular target: T1, SGLT1 (Homo sapiens, UniProt P13866); assay: 14C-AMG uptake in BHK cells transfected with SGLT1 (96-well cell-based assay); settings: 50 μM AMG, 37° C., 90 min
T1 construct: expressed in transfected cells
T1 sequence (P13866 1-664): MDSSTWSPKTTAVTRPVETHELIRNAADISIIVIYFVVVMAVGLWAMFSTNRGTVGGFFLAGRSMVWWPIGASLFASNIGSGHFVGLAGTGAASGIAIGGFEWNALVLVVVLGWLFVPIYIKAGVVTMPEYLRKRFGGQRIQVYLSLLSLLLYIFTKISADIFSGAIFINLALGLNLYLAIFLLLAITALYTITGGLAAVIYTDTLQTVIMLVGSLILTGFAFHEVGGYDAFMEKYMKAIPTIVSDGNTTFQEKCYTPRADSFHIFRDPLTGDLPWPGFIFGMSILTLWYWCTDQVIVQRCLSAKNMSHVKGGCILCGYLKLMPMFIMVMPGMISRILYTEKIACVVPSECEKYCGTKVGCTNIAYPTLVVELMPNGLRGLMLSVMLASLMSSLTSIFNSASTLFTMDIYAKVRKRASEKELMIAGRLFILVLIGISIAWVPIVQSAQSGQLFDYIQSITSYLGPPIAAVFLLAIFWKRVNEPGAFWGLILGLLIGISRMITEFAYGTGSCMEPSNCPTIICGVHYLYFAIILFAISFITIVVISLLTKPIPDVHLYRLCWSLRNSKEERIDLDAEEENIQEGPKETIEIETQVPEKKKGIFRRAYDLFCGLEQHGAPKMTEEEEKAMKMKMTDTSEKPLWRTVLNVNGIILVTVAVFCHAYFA
From the text: (§1) The compounds can be tested for their SGLT inhibition properties by means of BHK cells expressing SGLT1 and SGLT2. The production of the cells and the testing can be carried out as described below.
To construct the SGLT1 expression vector (KL225), the SLC5A1 gene (homologous to NM-000343) was amplified from a cDNA library using standard PCR technology and cloned over NheI/XhoI sites into the pcDNA3.1 expression vector (Invitrogen) containing neomycin as a selection marker. In this vector, transcription uses the enhancer/promoter of human cytomegalovirus.
(§2) The final vector KL225 together with an additional vector containing a dihydrofolate reductase gene as a selection marker was introduced into cells. […] After growth for 2-3 weeks, the cells were cloned (0.5 cells/well) and the clones were investigated for SGLT expression in radioactivity uptake tests. […]
(§3) BHK cells (transfected with SGLT1 or SGLT2) were seeded into 96-well microtitre plates (Cultureplates, Perkin Elmer). […] The radioactivity was counted in a Topcount microplate scintillation counter (Perkin Elmer). The non-specific uptake was determined in sodium-free assay buffer (266 mM sucrose, 2 mM KCl, 1 mM CaCl2, 1 mM MgCl2, 10 mM HEPES, 5 mM Tris, adjusted to pH 7.4 using 1 M KOH).

[2] = molecular target: T2, SGLT2 (Homo sapiens, UniProt P31639); assay: 14C-AMG uptake in BHK cells transfected with SGLT2 (96-well cell-based assay); settings: 2 mM AMG, 37° C., 90 min
T2 construct: expressed in transfected cells
T2 sequence (P31639 1-672): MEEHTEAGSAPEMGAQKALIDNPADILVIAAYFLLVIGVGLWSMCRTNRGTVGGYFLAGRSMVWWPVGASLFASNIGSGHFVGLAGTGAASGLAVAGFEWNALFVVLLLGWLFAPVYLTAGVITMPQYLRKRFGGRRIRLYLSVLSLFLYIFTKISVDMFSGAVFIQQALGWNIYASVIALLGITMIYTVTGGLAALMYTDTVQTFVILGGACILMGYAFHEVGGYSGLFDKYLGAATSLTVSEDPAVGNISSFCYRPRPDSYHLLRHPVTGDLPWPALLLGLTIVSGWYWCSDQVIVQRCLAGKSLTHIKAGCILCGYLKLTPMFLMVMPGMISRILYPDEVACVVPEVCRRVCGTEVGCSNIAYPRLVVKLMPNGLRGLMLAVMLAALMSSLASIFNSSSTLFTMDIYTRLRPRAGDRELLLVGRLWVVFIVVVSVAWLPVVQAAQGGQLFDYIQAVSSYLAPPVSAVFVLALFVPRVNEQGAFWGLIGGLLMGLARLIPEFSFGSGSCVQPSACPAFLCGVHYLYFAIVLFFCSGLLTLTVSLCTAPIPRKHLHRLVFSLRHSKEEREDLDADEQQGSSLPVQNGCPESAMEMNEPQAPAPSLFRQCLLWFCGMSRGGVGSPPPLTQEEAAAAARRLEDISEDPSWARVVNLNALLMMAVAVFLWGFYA
From the text: as §1
To construct the SGLT2 expression vector (KL224), the SLC5A2 gene (homologous to NM_003041) was amplified from a cDNA library using standard PCR technology and cloned over NheI/XhoI sites into PCI-neo expression vector (Promega) containing neomycin as a selection marker. In this vector, transcription uses the enhancer/promoter of human cytomegalovirus and the SV40 polyadenylation signal.
as §2, with “KL224” for “KL225”
as §3

IC50 [1] [nM]	IC50 [2] [nM]	SMILES
1000 to 10000	10 to 1000	Cc1cccc(C)c1Nc1c(-c2ccccc2OCC(N)=O)c(C#N)c2ccccn12 [Compound A2, 2-{2-[1-Cyano-3-(2,6-dimethylphenylamino)indolizin-2-yl]phenoxy}acetamide]
1000 to 10000	10 to 1000	COc1cccc(OCC(N)=O)c1-c1c(C#N)c2ccccn2c1Nc1c(C)cccc1C [Compound A1, 2-{2-[1-cyano-3-(2,6-dimethylphenylamino)indolizin-2-yl]-3-methoxyphenoxy}acetamide]
